Tested on: MCF7-ADRr
Assay type: cell-based
Description: The cytotoxic activity was evaluated according to M. C. Alley et al., Cancer Research, 48, 589-601, […].

## COc1cc2c(c(OC)c1OC)-c1ccc(SC)c(=O)cc1[C@@H](NC(C)=O)CC2 [Thiocolchicine]
  MCF7-ADRr/MCF7: 20000

— patent US6627774B2, “N-deacetylthiocolchicine derivatives and pharmaceutical compositions containing them” (Indena S.p.A., priority 2001, dated 2003)
